Measurements published in patent US10988523B2, “Modified lipidated Relaxin B chain peptides and their therapeutic use” (Sanofi, priority 2018, dated 2021).
Read-outs that look alike come from different tables or passages of the source. *1 amine or outer side, *2 acyl side, *3 side chain or, on linkers, in order; H or OH if unused. Where a SMILES comes first, the peptide text is derived from it. Side-chain parts run from the residue outwards. [ ]: non-standard residue; d: D form. The star is where a group is joined. X4 = CCCCCCCCCCCCCCCC(=O)N[C@@H](CCC(=O)N[C@@H](CCC(=O)NCCCC[C@H](NC(=O)CC[C@H](NC(=O)CC[C@H](NC(=O)CCC(=O)NCCCOCCOCCOCCCNC(=O)CCC(=O)NCCCOCCOCCOCCCNC(=O)CCC(=O)NCCCOCCOCCOCCCN*)C(=O)O)C(=O)O)C(N)=O)C(=O)O)C(=O)O; PEG12 = NCCOCCOCCOCCOCCOCCOCCOCCOCCOCCOCCOCCOCCC(=O)O; γGlu = O=C(O)[C@H](CCC(=O)[*:2])N[*:1]; Stearoyl = CCCCCCCCCCCCCCCCCC(=O)*; Palmitoyl = CCCCCCCCCCCCCCCC(=O)*; αMeK = C[C@](N)(CCCCN)C(=O)O; αMeS = C[C@](N)(CO)C(=O)O; Nle = CCCC[C@H](N)C(=O)O; AEEA = NCCOCCOCC(=O)O; Aib = CC(C)(N)C(=O)O

How the values were obtained:
RXFP1 = target: T1, RXFP1 (Homo sapiens, UniProt Q9HBX9); experiment: OVCAR5 cAMP assay (HTRF), RXFP1 agonist activity; type: cell-based; settings: for EC50: OVCAR5 cells, cAMP HTRF, read-out: EC50 (nM), OVCAR 5 cells (cAMP); for Emax: OVCAR-5, maximal cAMP relative to H2-relaxin maximum (100%), read-out: EMax, OVCAR 5 cells (cAMP)
T1 construct: OVCAR5 cells expressing endogenous RXFP1; endogenous in cells; host or cells: OVCAR5 cells
T1 sequence (Q9HBX9 1-757): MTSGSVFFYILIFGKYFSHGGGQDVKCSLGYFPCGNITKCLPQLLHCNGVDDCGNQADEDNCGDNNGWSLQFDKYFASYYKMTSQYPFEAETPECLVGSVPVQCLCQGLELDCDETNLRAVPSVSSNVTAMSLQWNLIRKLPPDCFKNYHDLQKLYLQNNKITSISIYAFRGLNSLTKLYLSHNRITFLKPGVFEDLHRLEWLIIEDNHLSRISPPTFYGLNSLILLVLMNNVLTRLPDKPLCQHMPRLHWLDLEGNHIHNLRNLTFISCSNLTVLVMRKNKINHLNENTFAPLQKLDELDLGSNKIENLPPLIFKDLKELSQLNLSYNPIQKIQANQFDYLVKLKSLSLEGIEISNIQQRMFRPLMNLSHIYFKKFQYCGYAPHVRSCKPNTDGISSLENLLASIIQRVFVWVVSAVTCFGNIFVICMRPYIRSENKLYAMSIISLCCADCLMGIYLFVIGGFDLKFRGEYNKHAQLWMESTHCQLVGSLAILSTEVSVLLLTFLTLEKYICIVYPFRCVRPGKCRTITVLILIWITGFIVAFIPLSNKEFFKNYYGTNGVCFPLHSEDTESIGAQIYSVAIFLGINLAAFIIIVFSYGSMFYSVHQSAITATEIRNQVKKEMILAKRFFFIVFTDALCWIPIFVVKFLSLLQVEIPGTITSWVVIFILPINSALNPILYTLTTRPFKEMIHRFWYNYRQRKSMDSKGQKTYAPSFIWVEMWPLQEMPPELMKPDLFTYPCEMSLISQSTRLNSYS
How it was run: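 OVCAR5 cells (endogenous RXFP1) pretreated 40 min at 37° C with 1 mM IBMX, then exposed to peptides in serum-free medium for 30 min at 37° C. Lysate cAMP read by HTRF; EC50 from variable-slope sigmoidal fit; Emax as % of H2-relaxin maximal cAMP in same run.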

[1] = Pharmacokinetic (PK) determination after i.v. or s.c. administration to rats; type: in vivo, Sprague Dawley rats; settings: Rat PK; for half-life / Cmax / Tmax / bioavailability: plasma; for half-life: read-out: T½ (converted); for Cmax / Tmax: sc, 3 mg/kg s.c.; for bioavailability: subcutaneous, 3 mg/kg s.c. vs 1 mg/kg i.v., dose-corrected AUC ratio
Protocol: Prior to the testing of a peptide batch, its purity (HPLC-UV) was determined. Dose was corrected for presence of salts, solvent and purity.
Sprague Dawley rats were dosed with study peptide at a dose of 1 mg/kg intravenously (i.v.) or 3 mg/kg subcutaneously (s.c.) as a solution in PBS (0.2 mg/ml and 0.6 mg/ml respectively).
Plasma samples were analyzed after protein precipitation via liquid chromatography mass spectrometry (LC/MS).
PK parameters and half-life were calculated using Phoenix 64 (WinNonlin 6.4)-Pharsight (Certara™) (non-compartment model). Values below the limit of quantification (BLQ) were replaced by zero for subsequent calculations and PK analysis.
T½: in-vivo half life, time required for test compound plasma concentration to be divided by two during the PK experiment.
C0: Extrapolated test compound plasma concentration at t=0 time point (i.v. route).
Cmax: maximal test compound plasma concentration at the indicated time point (s.c. route).
Tmax: Time point where Cmax is attained.
F %: s.c. vs i.v. bioavailability, dose-corrected area under curve (AUC) s.c. route divided by AUC i.v.

[2] = Sprague Dawley, iv, 1 mg/kg i.v., extrapolated plasma concentration at t=0, read-out: C0
[3] = Sprague Dawley, iv, 1 mg/kg i.v.

Row | Compound | EC50 (RXFP1) | Emax (RXFP1) | C0 [1, 2] | half-life [1, 3] | Cmax ([1]; Sprague Dawley) | Tmax ([1]; Sprague Dawley) | bioavailability ([1]; Sprague Dawley) | T½ ([1]; 1 mg/kg i.v.) | T½ (in-vivo half life) ([1]; 1 mg/kg i.v.) | C0 ([1]; 1 mg/kg i.v., read-out: C0 (extrapolated plasma concentration at t=0))
1 | CCCCCCCCCCCCCCCC(=O)N[C@@H](CCC(=O)N[C@@H](CCC(=O)NCCCC[C@H](NC(=O)CC[C@H](NC(=O)CC[C@H](NC(=O)COCCOCCNC(=O)COCCOCCNC(=O)COCCOCCNC(=O)COCCOCCNC(=O)[C@H](CCCCNC(C)=O)NC(=O)[C@H](C)NC(=O)[C@H](CCCNC(=N)N)NC(=O)[C@](C)(CCCCN)NC(=O)[C@H](CO)NC(=O)[C@H](Cc1ccccc1)NC(=O)[C@@H](NC(=O)[C@H](CO)NC(=O)[C@H](CCCC)NC(=O)CNC(=O)[C@H](CCC(=O)O)NC(=O)C(C)(C)NC(=O)C(C)(C)NC(=O)[C@@H](NC(=O)[C@H](CCCCNC(C)=O)NC(=O)[C@H](C)NC(=O)[C@H](CCCNC(=N)N)NC(=O)[C@@H](NC(=O)[C@H](CCCCN)NC(=O)[C@H](CCC(=O)O)NC(=O)[C@H](CCCNC(=N)N)NC(=O)CNC(=O)[C@H](CCC(=O)O)NC(=O)[C@H](CC(C)C)NC(C)=O)C(C)C)[C@@H](C)CC)[C@@H](C)O)C(=O)O)C(=O)O)C(N)=O)C(=O)O)C(=O)O [compound 160] (Ac-LEGREKVRAK(Ac)I[Aib][Aib]EG[Nle]STFS[αMeK]RAK(Ac)[AEEA][AEEA][AEEA][AEEA][γGlu][γGlu]K([γGlu-γGlu-Palmitoyl])-NH2) | 0.28 nM | 86% | 2500 nM | 5.3 h | 1200 nM | 7 h | 66% |  |  | 
2 | CCCCCCCCCCCCCCCC(=O)N[C@@H](CCC(=O)N[C@@H](CCC(=O)N[C@@H](CCC(=O)NCCCC[C@H](NC(=O)CCOCCOCCOCCOCCOCCOCCOCCOCCOCCOCCOCCOCCNC(=O)[C@H](CCCCNC(C)=O)NC(=O)[C@H](CCCCN)NC(=O)[C@H](CCCNC(=N)N)NC(=O)C(C)(C)NC(=O)[C@H](CO)NC(=O)[C@H](Cc1c[nH]c2ccccc12)NC(=O)[C@@H](NC(=O)[C@H](CO)NC(=O)[C@H](CCCC)NC(=O)CNC(=O)[C@H](CCC(=O)O)NC(=O)C(C)(C)NC(=O)C(C)(C)NC(=O)[C@@H](NC(=O)[C@H](CCCCNC(C)=O)NC(=O)C(C)(C)NC(=O)[C@H](CCCNC(=N)N)NC(=O)[C@@H](NC(=O)[C@H](CCCCN)NC(=O)[C@H](CCC(=O)O)NC(=O)[C@H](CCCNC(=N)N)NC(=O)CNC(=O)[C@H](CCC(=O)O)NC(=O)[C@H](CC(C)C)NC(C)=O)C(C)C)[C@@H](C)CC)[C@@H](C)O)C(N)=O)C(=O)O)C(=O)O)C(=O)O [compound 27] (Ac-LEGREKVR[Aib]K(Ac)I[Aib][Aib]EG[Nle]STWS[Aib]RKK(Ac)[PEG12]K([γGlu-γGlu-γGlu-Palmitoyl])-NH2) | 0.3 nM | 86% | 3200 nM |  | 1500 nM | 8 h | 62% | 6.90 h |  | 
3 | CCCCCCCCCCCCCCCC(=O)N[C@@H](CCC(=O)N[C@@H](CCC(=O)N[C@@H](CCC(=O)N[C@@H](CCC(=O)NCCCC[C@H](NC(=O)COCCOCCNC(=O)COCCOCCNC(=O)COCCOCCNC(=O)COCCOCCNC(=O)[C@H](CCCCNC(C)=O)NC(=O)[C@H](CCCCN)NC(=O)[C@H](CCCNC(=N)N)NC(=O)[C@](C)(CCCCN)NC(=O)[C@H](CO)NC(=O)[C@H](Cc1c[nH]c2ccccc12)NC(=O)[C@@H](NC(=O)[C@H](CO)NC(=O)[C@H](CCCC)NC(=O)CNC(=O)[C@H](CCC(=O)O)NC(=O)C(C)(C)NC(=O)C(C)(C)NC(=O)[C@@H](NC(=O)[C@H](CCCCNC(C)=O)NC(=O)[C@H](C)NC(=O)[C@H](CCCNC(=N)N)NC(=O)[C@@H](NC(=O)[C@H](CCCCN)NC(=O)[C@H](CCC(=O)O)NC(=O)[C@H](CCCNC(=N)N)NC(=O)CNC(=O)[C@H](CCC(=O)O)NC(=O)[C@H](CC(C)C)NC(C)=O)C(C)C)[C@@H](C)CC)[C@@H](C)O)C(N)=O)C(=O)O)C(=O)O)C(=O)O)C(=O)O [compound 131] (Ac-LEGREKVRAK(Ac)I[Aib][Aib]EG[Nle]STWS[αMeK]RKK(Ac)[AEEA][AEEA][AEEA][AEEA]K([γGlu-γGlu-γGlu-γGlu-Palmitoyl])-NH2) | 0.26 nM | 92% | 2500 nM | 6.3 h | 1390 nM | 8 h | 82% |  |  | 
4 | H2-Relaxin: 6-kDa peptidic hormone of 53 amino acids; chain A (SEQ ID NO: 194) and chain B (SEQ ID NO: 195) cross-linked by disulfide bonds |  |  |  |  |  |  |  |  | 0.46 h | 870 nM

Continued by falling EC50 (RXFP1), values first:

Row | EC50 (RXFP1) | Emax (RXFP1) | C0 [1, 2] | half-life [1, 3] | Cmax ([1]; Sprague Dawley) | Tmax ([1]; Sprague Dawley) | bioavailability ([1]; Sprague Dawley) | T½ ([1]; 1 mg/kg i.v.) | Compound | T½ (in-vivo half life) ([1]; 1 mg/kg i.v.) | C0 ([1]; 1 mg/kg i.v., read-out: C0 (extrapolated plasma concentration at t=0))
5 | 0.03 nM | 91% | 4100 nM | 3.7 h | 1570 nM | 8 h | 62% |  | CCCCCCCCCCCCCCCCCC(=O)N[C@@H](CCC(=O)N[C@@H](CCC(=O)N[C@@H](CCC(=O)N[C@@H](CCC(=O)NCCCC[C@H](NC(=O)CCOCCOCCOCCOCCOCCOCCOCCOCCOCCOCCOCCOCCNC(=O)[C@H](CCCCNC(C)=O)NC(=O)[C@H](CCCCN)NC(=O)[C@H](CCCNC(=N)N)NC(=O)[C@H](CCCCN)NC(=O)[C@](C)(CO)NC(=O)[C@H](Cc1c[nH]c2ccccc12)NC(=O)[C@@H](NC(=O)[C@H](CO)NC(=O)[C@H](CCCC)NC(=O)CNC(=O)[C@H](CCC(=O)O)NC(=O)C(C)(C)NC(=O)C(C)(C)NC(=O)[C@@H](NC(=O)[C@H](CCCCNC(C)=O)NC(=O)[C@H](C)NC(=O)[C@H](CCCNC(=N)N)NC(=O)[C@@H](NC(=O)[C@H](CCCCN)NC(=O)[C@H](CCC(=O)O)NC(=O)[C@H](CCCNC(=N)N)NC(=O)CNC(=O)[C@H](CCC(=O)O)NC(=O)[C@H](CC(C)C)NC(C)=O)C(C)C)[C@@H](C)CC)[C@@H](C)O)C(N)=O)C(=O)O)C(=O)O)C(=O)O)C(=O)O [compound 39] (Ac-LEGREKVRAK(Ac)I[Aib][Aib]EG[Nle]STW[αMeS]KRKK(Ac)[PEG12]K([γGlu-γGlu-γGlu-γGlu-Stearoyl])-NH2) |  | 
6 | 0.01 nM | 89% | 3040 nM | 5.8 h | 1890 nM | 6 h | 69% |  | CCCCCCCCCCCCCCCC(=O)N[C@@H](CCC(=O)N[C@@H](CCC(=O)NCCCC[C@H](NC(=O)CC[C@H](NC(=O)CC[C@H](NC(=O)CCC(=O)NCCCOCCOCCOCCCNC(=O)CCC(=O)NCCCOCCOCCOCCCNC(=O)CCC(=O)NCCCOCCOCCOCCCNC(=O)[C@H](CCCCNC(C)=O)NC(=O)[C@H](C)NC(=O)[C@H](CCCNC(=N)N)NC(=O)[C@](C)(CCCCN)NC(=O)[C@H](CO)NC(=O)[C@H](Cc1ccccc1)NC(=O)[C@@H](NC(=O)[C@H](CO)NC(=O)[C@H](CCCC)NC(=O)CNC(=O)[C@H](CCC(=O)O)NC(=O)C(C)(C)NC(=O)C(C)(C)NC(=O)[C@@H](NC(=O)[C@H](CCCCNC(C)=O)NC(=O)[C@H](C)NC(=O)[C@H](CCCNC(=N)N)NC(=O)[C@@H](NC(=O)[C@H](CCCCN)NC(=O)[C@H](CCC(=O)O)NC(=O)[C@H](CCCNC(=N)N)NC(=O)CNC(=O)[C@H](CCC(=O)O)NC(=O)[C@H](CC(C)C)NC(C)=O)C(C)C)[C@@H](C)CC)[C@@H](C)O)C(=O)O)C(=O)O)C(N)=O)C(=O)O)C(=O)O [compound 169] (Ac-LEGREKVRAK(Ac)I[Aib][Aib]EG[Nle]STFS[αMeK]RAK(Ac)-X4) |  | 
